Data as given in the NIST ThermoML archive (doi:10.1016/j.jct.2013.01.006).
± gives the expanded uncertainty stated by the source.

Conditions: Liquid, Vibrating tube method

FCC(F)(F)F [1,1,1,2-tetrafluoroethane]
Conditions | mass density [kg/m3]
283.52 K, 1010 kPa | 1262.83 ± 0.53
283.53 K, 5000 kPa | 1279.7 ± 0.52
283.54 K, 10000 kPa | 1298.2 ± 0.51
283.54 K, 20000 kPa | 1329.16 ± 0.58
283.54 K, 39990 kPa | 1376.78 ± 0.81
283.54 K, 60010 kPa | 1413.66 ± 1.2
283.54 K, 80020 kPa | 1444.29 ± 1.6
303.26 K, 1000 kPa | 1188.74 ± 0.7
303.27 K, 5000 kPa | 1212.6 ± 0.6
303.28 K, 10000 kPa | 1237.15 ± 0.54
303.29 K, 19980 kPa | 1275.91 ± 0.56
303.29 K, 40010 kPa | 1332.33 ± 0.75
303.3 K, 60000 kPa | 1374.15 ± 1.1
303.3 K, 79980 kPa | 1408.2 ± 1.5
323.07 K, 1280 kPa | 1102.44 ± 1
323.08 K, 5000 kPa | 1136.68 ± 0.78
323.08 K, 10000 kPa | 1170.98 ± 0.62
323.09 K, 20000 kPa | 1220.67 ± 0.56
323.11 K, 60000 kPa | 1335.02 ± 0.95
323.11 K, 80000 kPa | 1372.84 ± 1.4
323.12 K, 40000 kPa | 1287.6 ± 0.69
343.02 K, 10000 kPa | 1097 ± 0.78
343.02 K, 20000 kPa | 1162.16 ± 0.58
343.02 K, 39990 kPa | 1241.93 ± 0.63
343.02 K, 60010 kPa | 1295.73 ± 0.86
343.03 K, 4990 kPa | 1045.24 ± 1.2
343.03 K, 80010 kPa | 1337.58 ± 1.3
343.05 K, 2090 kPa | 997.14 ± 1.7
362.95 K, 5000 kPa | 921.91 ± 2.2
362.95 K, 10000 kPa | 1012.79 ± 1.1
362.96 K, 20000 kPa | 1101.23 ± 0.65
362.97 K, 40000 kPa | 1196.59 ± 0.6
362.98 K, 60000 kPa | 1257.2 ± 0.78
362.99 K, 80000 kPa | 1302.95 ± 1.2
